Data on 93 compounds can be found in the RepoRT retention time repository (doi:10.1016/j.jhazmat.2019.121712).

The structures appear in SMILES notation.

The data set is described as follows: Thermo Scientific Acclaim RSLC 120 C18, 100 × 2.1 mm, 2.2 µm, 30 °C; A: 90% water + 10% methanol + 0.01% formic acid + 5 mM ammonium formate; B: methanol + 0.01% formic acid + 5 mM ammonium formate; gradient (min/%B) 0.1/1 3/39 14/99.9 16/99.9. To be noted: stereoisomer not certain.
In the case of `CCC(c1cccc(O)c1)C(C)CN(C)C` (stereo not drawn), the LC retention time worked out at 5.01 min.

Consider `Cc1cccc(C)c1NC(=O)C1CCCCN1C` (stereo not drawn), for which the LC retention time amounted to 4.66 min.

Turning to `COCCOc1c(OC)cc(Cc2cnc(N)nc2N)cc1OC`, the LC retention time was 4.24 min.

In the case of `CC(=O)Nc1nnc(S(N)(=O)=O)s1`, the LC retention time worked out at 3.43 min.

Take `COC1CC(CC2CCC(C)C(C(C)C(=O)O)O2)OC2(OC(C)(C3CCC(C)(C4OC(C5OC(O)(CO)C(C)CC5C)CC4C)O3)CC2C)C1C` (stereo not drawn): the LC retention time stood at 13.9 min.

In the case of `COc1ccc2cc(CCC(C)=O)ccc2c1`, the LC retention time is 9.82 min.

Regarding `COc1cc(OC)nc(Oc2cccc(Oc3nc(OC)cc(OC)n3)c2C(=O)O)n1`, the LC retention time was 8.86 min.

Turning to `CCCCN1CC(=O)N2C(Cc3c([nH]c4ccccc34)C2c2ccc3c(c2)OCO3)C1=O` (stereo not drawn), the LC retention time was determined as 10.2 min.

For `CC1CCCC(C)N1CCCC(O)(c1ccccc1)c1ccccn1` (stereo not drawn), the LC retention time came to 6.01 min.

For the compound `CNC(C)CC1CCCCC1` (stereo not drawn), the LC retention time amounted to 5.74 min.

For `Nc1cc(-c2ccncc2)c[nH]c1=O`, the LC retention time was found to be 2.88 min.

`COC(=O)NC(C(=O)NC(Cc1ccccc1)C(O)CN(Cc1ccc(-c2ccccn2)cc1)NC(=O)C(NC(=O)OC)C(C)(C)C)C(C)(C)C` (stereo not drawn): the LC retention time amounted to 10.9 min.

On to `CCCCC(CC)COC(=O)C(C#N)=C(c1ccccc1)c1ccccc1` (stereo not drawn), for which the LC retention time came to 13.4 min.

Consider `C=CC=CCC1=C(C)C(OC(=O)C2C(C=C(C)C)C2(C)C)CC1=O` (stereo not drawn), for which the LC retention time was 12.9 min.

In the case of `CCc1cc(OC)c(CCN)cc1OC`, the LC retention time is 6.48 min.

Regarding `Cc1ncc([N+](=O)[O-])n1CCO`, the LC retention time is 3.58 min.

For the compound `CCC1OC(=O)CC(O)C(C)C(OC2OC(C)C(O)C(N(C)C)C2O)C(CCN2CC(C)CC(C)C2)CC(C)C(=O)C=CC(C)=CC1COC1OC(C)C(O)C(OC)C1OC` (stereo not drawn), the LC retention time was found to be 6.69 min.

In the case of `C=C1CC23CC1(O)CCC2C12C=CC(O)C(C)(C(=O)O1)C2C3C(=O)O` (stereo not drawn), the LC retention time was 4.91 min.

As for `Cc1cc(C)nc(NS(=O)(=O)c2ccc(N)cc2)n1`, the LC retention time came to 4.31 min.

Take `CCN1CCN(C(=O)NC(C(=O)NC2C(=O)N3C(C(=O)O)=C(CSc4nnnn4C)CSC23)c2ccc(O)cc2)C(=O)C1=O` (stereo not drawn): the LC retention time worked out at 4.36 min.

Turning to `CCN(CCCCOC(=O)c1ccc(OC)c(OC)c1)C(C)Cc1ccc(OC)cc1` (stereo not drawn), the LC retention time turned out to be 6.79 min.

Turning to `Cc1c(NC(=O)c2cccnc2)c(=O)n(-c2ccccc2)n1C`, the LC retention time stood at 4.56 min.

On to `CC(CN1c2ccccc2Sc2ccccc21)N(C)C` (stereo not drawn), for which the LC retention time was 7.53 min.

For `CCOC1OC(C(=O)O)C(O)C(O)C1O` (stereo not drawn), the LC retention time amounted to 1.52 min.

Consider `COc1ccc2cc(C(C)C(=O)O)ccc2c1` (stereo not drawn), for which the LC retention time stood at 8.99 min.

With `COC1CC(OC2C(C)OC(OC3C(C)=CCC4CC(CC5(C=CC(C)C(C(C)C)O5)O4)OC(=O)C4C=C(C)C(O)C5OCC(=CC=CC3C)C45O)CC2OC)OC(C)C1O` (stereo not drawn), the LC retention time came out at 13.4 min.

For the compound `CC(=O)Nc1ccc(OC(=O)c2ccccc2OC(C)=O)cc1`, the LC retention time amounted to 7.41 min.

On to `CC1(C)C(C(=O)OC(C#N)c2cccc(Oc3ccccc3)c2)C1(C)C` (stereo not drawn), for which the LC retention time stood at 12.9 min.

Turning to `CC(C)(C)NCC(O)COc1cccc2c1CCC(=O)N2` (stereo not drawn), the LC retention time is 3.91 min.

Turning to `CC(=O)SC1CC2=CC(=O)CCC2(C)C2CCC3(C)C(CCC34CCC(=O)O4)C12` (stereo not drawn), the LC retention time is 9.24 min.

In the case of `CN1C2CCC1CC(OC(=O)C(O)c1ccccc1)C2` (stereo not drawn), the LC retention time was determined as 3.73 min.

As to `NS(=O)(=O)Cc1noc2ccccc12`, the LC retention time came out at 4.53 min.

As for `O=C(c1cccc2ccccc12)c1cn(CC2CCCCC2)c2ccccc12`, the LC retention time was 13 min.

In the case of `CCn1nc(C(=O)O)c(=O)c2cc3c(cc21)OCO3`, the LC retention time was found to be 5.32 min.

For the compound `COCC(C)N(C(=O)C(=O)O)c1c(C)csc1C` (stereo not drawn), the LC retention time came to 6.36 min.

Take `CC(C)=CCN1CCC2(C)c3cc(O)ccc3CC1C2C` (stereo not drawn): the LC retention time stood at 5.46 min.

For the compound `COC(C)C(O)(C(=O)OCC1=CC[N+]2([O-])CCC(O)C12)C(C)C` (stereo not drawn), the LC retention time was 3.49 min.

For `CN(C)CCc1c[nH]c2ccccc12`, the LC retention time is 3.94 min.

In the case of `CC1(C)OCC2OC3(C(=O)O)OC(C)(C)OC3C2O1` (stereo not drawn), the LC retention time amounted to 4.76 min.

Regarding `CCOS(=O)(=O)O`, the LC retention time is 1.58 min.

As to `CSc1nnc(C(C)(C)C)c(=O)n1N`, the LC retention time was found to be 7.07 min.

With `CCCCCCn1cc(C(=O)c2cccc3ccccc23)cc1-c1ccccc1`, the LC retention time was 13.3 min.

With `O=C1N=CCC=N1`, the LC retention time stood at 4.49 min.

As to `O=C1c2ccccc2C(=O)C1C(=O)C(c1ccccc1)c1ccccc1`, the LC retention time was 8.6 min.

For the compound `CC(C)Cc1ccc(C(C)C(=O)O)cc1` (stereo not drawn), the LC retention time came out at 10.7 min.

For `CCN(CC)C(=O)C1C=C2c3cccc4[nH]cc(c34)CC2NC1` (stereo not drawn), the LC retention time came out at 5.56 min.

Turning to `CC(C)(C)c1n[nH]c(=O)n(N)c1=O`, the LC retention time came out at 5.89 min.

As to `CC[N+]1([O-])CCCC1CNC(=O)c1cc(S(=O)(=O)CC)c(N)cc1OC` (stereo not drawn), the LC retention time stood at 4.33 min.

Take `CC(C)(C)NCC(O)COc1ccccc1C1CCCC1` (stereo not drawn): the LC retention time was 9.01 min.

Consider `CCCOc1ccc(S(=O)(=O)N2CCN(CCO)CC2)cc1-c1nc2c(CCC)cn(CC)c2c(=O)[nH]1`, for which the LC retention time was 9.49 min.

With `COC(=O)C1=C(C)NC(C)=C(C(=O)OC(C)C)C1c1cccc2nonc12` (stereo not drawn), the LC retention time is 9.61 min.

As for `CNCCCC1c2ccccc2C=Cc2ccccc21`, the LC retention time amounted to 7.99 min.

For the compound `Cc1ccc(C(C)NC(=O)C(NC(=O)OC(C)C)C(C)C)cc1` (stereo not drawn), the LC retention time was determined as 9.82 min.

Take `COc1nccnc1NS(=O)(=O)c1ccc(N)cc1`: the LC retention time worked out at 4.44 min.

As to `COC(=O)Nc1nc2ccc(S(=O)c3ccccc3)cc2[nH]1` (stereo not drawn), the LC retention time came to 6.66 min.

Consider `CCCCn1cc(C(=O)c2cccc3ccccc23)c2ccc(O)cc21`, for which the LC retention time stood at 10.6 min.

Consider `CCC1(c2ccc(N)cc2)CCC(=O)NC1=O` (stereo not drawn), for which the LC retention time is 4.99 min.

With `CCCc1nc(C)c2c(=O)[nH]c(-c3cc(S(=O)(=O)N4CCN(CCO)CC4)ccc3OCC)nn12`, the LC retention time worked out at 8.05 min.

Take `Cc1ccc(C(=CCN2CCCC2)c2cccc(C=CC(=O)O)n2)cc1`: the LC retention time came out at 6.66 min.

For the compound `CC(=O)Nc1ccc(-c2ccc(C=NN3CC(=O)NC3=O)o2)cc1`, the LC retention time is 5.67 min.

For `CNC(=O)N(C)c1nc2ccccc2s1`, the LC retention time amounted to 8.26 min.

Turning to `CCC(=O)OC(Cc1ccccc1)(c1ccccc1)C(C)CN(C)C` (stereo not drawn), the LC retention time was found to be 7.73 min.

For `CNC(C)C1CCC(N)C(OC2C(N)CC(N)C(OC3OCC(C)(O)C(NC)C3O)C2O)O1` (stereo not drawn), the LC retention time came out at 11.6 min.

As to `C=C(C)C1CCC(C)=CC1c1c(O)cc(CCCCC)cc1O` (stereo not drawn), the LC retention time is 12.7 min.

In the case of `CN(CCO)c1nc2c(c(=O)n(C)c(=O)n2C)n1C`, the LC retention time was 4.94 min.

For `Cc1nc(NS(=O)(=O)c2ccc(N)cc2)oc1C`, the LC retention time was found to be 4.11 min.

For the compound `CCC(C(=O)c1ccc2c(c1)OCO2)N(C)C` (stereo not drawn), the LC retention time turned out to be 4.38 min.

Turning to `CN(Cc1cnc2nc(N)nc(N)c2n1)c1ccc(C(=O)NC(CCC(=O)O)C(=O)O)cc1` (stereo not drawn), the LC retention time came to 3.96 min.

Turning to `CNC(=O)ON=CC(C)(C)SC`, the LC retention time was found to be 6.17 min.

In the case of `CC=CC(=O)N(CC)C(CC)C(=O)N(C)C` (stereo not drawn), the LC retention time stood at 6.13 min.

Take `CC(CN(C)C)CN1c2ccccc2S(=O)(=O)c2ccccc21` (stereo not drawn): the LC retention time came out at 5.34 min.

On to `CCCc1nn(C)c2c(=O)[nH]c(-c3cc(C(=O)CN4CCN(CC)CC4)ccc3OCC)nc12`, for which the LC retention time turned out to be 7.01 min.

Turning to `COCC(=O)N(c1c(C)cccc1C)C(C)C(=O)OC` (stereo not drawn), the LC retention time was determined as 8.22 min.

Turning to `CCCCCn1nc(C(=O)c2cccc3ccccc23)c2ccccc21`, the LC retention time was 13.1 min.

With `COc1ccc2[nH]cc(CCN(C)C)c2c1`, the LC retention time was found to be 3.98 min.

Turning to `CCN(CC)CCCN(c1ccccc1)C1Cc2ccccc2C1`, the LC retention time was found to be 8.85 min.

Turning to `COCCCOc1cc(CC(CC(N)C(O)CC(C(=O)NCC(C)(C)C(N)=O)C(C)C)C(C)C)ccc1OC` (stereo not drawn), the LC retention time is 8.87 min.

With `CSc1nc(N)nc(NC(C)(C)C)n1`, the LC retention time was found to be 8.43 min.

For the compound `CCOC(=O)NCCOc1ccc(Oc2ccccc2)cc1`, the LC retention time worked out at 10.6 min.

In the case of `CCNc1nc(NC(C)C)nc(OC)n1`, the LC retention time turned out to be 7.81 min.

On to `CCC1(C2OC(C3OC(O)(CO)C(C)CC3C)CC2C)CCC(C2(C)CCC3(CC(O)C(C)C(C(C)C(OC)C(C)C(=O)O)O3)O2)O1` (stereo not drawn), for which the LC retention time came out at 13.8 min.

On to `CC(Cc1ccc2c(c1)OCO2)N(C)C` (stereo not drawn), for which the LC retention time is 4.08 min.

In the case of `Cn1cnc2c1c(=O)[nH]c(=O)n2C`, the LC retention time was 3.28 min.

In the case of `CCc1cccc(CC)c1N(COC)C(=O)CS(=O)(=O)O`, the LC retention time worked out at 7.19 min.

`CNCCC(c1ccccc1)c1ccccn1` (stereo not drawn): the LC retention time is 5.79 min.

Consider `COP(=O)(OC)Oc1ccc(SC)c(C)c1`, for which the LC retention time is 8.82 min.

As to `CCNC(C)C(=O)c1ccc2c(c1)OCO2` (stereo not drawn), the LC retention time came to 4.04 min.

Consider `CCN1CC(CCN2CCOCC2)C(c2ccccc2)(c2ccccc2)C1=O` (stereo not drawn), for which the LC retention time amounted to 6.23 min.

Turning to `CC12C=CC3=C4CCC(=O)C=C4CCC3C1CCC2O` (stereo not drawn), the LC retention time came to 8.89 min.

In the case of `CN1Cc2c(N)cccc2C(c2ccccc2)C1` (stereo not drawn), the LC retention time turned out to be 5.42 min.

Take `CCOP(=S)(OCC)SCn1nnc2ccccc2c1=O`: the LC retention time is 10.2 min.

For `Cn1c([N+](=O)[O-])cnc1COC(N)=O`, the LC retention time was determined as 3.55 min.

Regarding `Cn1c(=O)c2c(ncn2CC(O)CO)n(C)c1=O` (stereo not drawn), the LC retention time stood at 3.76 min.
